# Experimental data from patent publication US20220332763A1, “FUSED POLYPEPTIDE AND USE THEREOF” (NANJING ANJI BIOLOGICAL TECHNOLOGY CO., LTD., priority 2019, published 2022).
# Assays:
# Details in all cases: Homo sapiens, 48 h, read-out: Inhibitory effect (%) on tumor growth
# [1] = tested on: Ovarian cancer; assay: cells
# Experimental: (§1) A plurality of types of human tumor cells were cultured in a 5% CO2 incubator at 37° C. and digested with trypsin when the density was 90% or above. The cells were resuspended in a culture solution and counted, and the cell concentration was adjusted to 2×10^4 cells/mL. The cell suspension was inoculated into a 96-well plate with 100 μL per well, and then cultured overnight in a 5% CO2 incubator at 37° C. After the cells completely adhered to the wall, each polypeptide according to the present invention was added as an administration group, and the culture solution without any drug was used as a blank control group. The solutions were diluted to 1 μmol/L by using a diluent. Each diluent was separately added to the 96-well plate with 100 per well, and the cells continued to be cultured in a 5% CO2 incubator for 48 hours at 37° C. Then 20 μL of MTT was added, and the cells continued to be cultured for 4 hours. The medium was sucked, and 100 μL of DMSO was added to each well for dissolution. Absorbance was measured by a microplate reader at a detection wavelength of 570 nm and a reference wavelength of 630 nm, and the growth inhibition rate was calculated. The formula was as follows: tumor growth inhibition rate (%)=(1−absorbance of the administration group/absorbance of the blank group)*100%. The experiment was repeated independently for 3 times.
# [2] = tested on: Cervical cancer; assay: cells
# Experimental: as §1
# [3] = tested on: Hemangioma; assay: cells
# Experimental: as §1
# [4] = tested on: Melanoma; assay: cells
# Experimental: as §1
# [5] = tested on: Prostate cancer; assay: cells
# Experimental: as §1
# [6] = tested on: Gastric cancer; assay: cells
# Experimental: as §1
# [7] = tested on: Breast cancer; assay: cells
# Experimental: as §1
# [8] = tested on: Thyroid cancer; assay: cells
# Experimental: as §1
# [9] = tested on: Colorectal cancer; assay: cells
# Experimental: as §1
# [10] = tested on: Kidney cancer; assay: cells
# Experimental: as §1
# [11] = tested on: Brain cancer; assay: cells
# Experimental: as §1
# [12] = tested on: Uterus cancer; assay: tissue or blood
# Experimental: as §1
# [13] = tested on: Head and neck cancer; assay: cells
# Experimental: as §1
# [14] = tested on: Pancreatic cancer; assay: cells
# Experimental: as §1
# [15] = tested on: Sarcoma; assay: cells
# Experimental: as §1
# [16] = tested on: Liver cancer; assay: cells
# Experimental: as §1
# [17] = tested on: Esophageal cancer; assay: cells
# Experimental: as §1
# [18] = tested on: Lung cancer; assay: cells
# Experimental: as §1
smiles,measurement,setting,value
CC(=O)O[C@@]12CO[C@@H]1C[C@H](O)[C@@]1(C)C(=O)[C@H](O)C3=C(C)[C@@H](OC(=O)[C@H](O)[C@@H](NC(=O)OC(C)(C)C)c4ccccc4)C[C@@](O)([C@@H](OC(=O)c4ccccc4)[C@H]21)C3(C)C [Docetaxel],inhibition at 1 µM,[1],62.8 ± 20.2%
same,inhibition at 1 µM,[2],66.6 ± 11.3%
same,inhibition at 1 µM,[3],78.8 ± 6.16%
same,inhibition at 1 µM,[4],68.4 ± 6.23%
same,inhibition at 1 µM,[5],78.4 ± 4.21%
same,inhibition at 1 µM,[6],74.2 ± 6.38%
same,inhibition at 1 µM,[7],65.1 ± 10.7%
same,inhibition at 1 µM,[8],73.2 ± 19.3%
same,inhibition at 1 µM,[9],53.5 ± 10.4%
same,inhibition at 1 µM,[10],75.5 ± 10.2%
same,inhibition at 1 µM,[11],68.1 ± 10.3%
same,inhibition at 1 µM,[12],57.2 ± 12.3%
same,inhibition at 1 µM,[13],62.5 ± 2.12%
same,inhibition at 1 µM,[14],76.7 ± 10.1%
same,inhibition at 1 µM,[15],62.5 ± 8.75%
same,inhibition at 1 µM,[16],74.2 ± 11.7%
same,inhibition at 1 µM,[17],64.4 ± 8.06%
same,inhibition at 1 µM,[18],73.3 ± 7.03%
